Test [1] concerns MM1 S (B lymphoblast cell line). As to the kind of experiment: 48 hr CTG viability assay, MM1S. The test is classed as cell-based. To be noted: Homo sapiens, 48 hr CTG, read-out: MM1S IC50. Here is the method:
(§1) A viability assay was conducted for 48 hours to evaluate the inhibition of cancer cell growth by proteasome inhibitors. Briefly, the candidate cell line was plated with a 96-well plate following density of cells, respectively. 6×10^3 Cells/well for A2780 (human ovarian cancer cell line) and MDA-MB-468 (breast carcinoma), 8×10^3 Cells/well for Hs746T (human gastric carcinoma cell line), 1.1×10^4 Cells/well for MM1 S and RPMI 8226 (multiple myeloma). After 24 hours, the cells were treated with various concentrations of the compound (ranging from 0.0015 uM to 10 uM). […] After 48 hours of incubation at 37° C., 5% CO2 incubator, cells were analyzed for viability using the CellTiter-Glo Luminescent Cell Viability assay (Promega, Cat #G7570). All viability assays were performed in duplicate and Luminescence was read using an Envision (Perkin Elmer, USA). Data were analyzed using XLfit software. […] (human gastric carcinoma cell line), MM1 S (B lymphoblast cell line), and RPMI 8226 (B lymphocyte cell line, multiple myeloma). Inhibition is indicated as IC50 [nM] (“-”=not measured).

For test [2], the system named is A549 (human lung carcinoma cell line). Put plainly: Glo assay of A549 cells (Table 3; ProteasomeGlo plating scheme). It is filed as cell-based. Conditions: Homo sapiens; A549 cells; read-out: PGLo A549. The essentials: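 Cells plated in 384 wells; compound, DMSO, staurosporine transferred by ECHO; 105 min, 37° C., 5% CO2; Proteasome-Glo (Suc-LLVY-Glo) reagent added; dark 10-15 min; luminescence; IC50 nM.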

Test [3] concerns RPMI 8226 (B lymphocyte cell line, multiple myeloma). As to the kind of experiment: 48 hr CTG viability assay, RPMI 8226. To be noted: Homo sapiens, RPMI-8226; 48 hr CTG; read-out: RPMI-8226 IC50. It is filed as cell-based. Here is the method: as §1
The target in test [4] is T1, β5 subunit of the human constitutive proteasome (CPS) (Homo sapiens, UniProt P28074).
T1 construct: purchased Boston Biochem E-360
As to the kind of experiment: β5 inhibition assay, human constitutive proteasome (Suc-LLVY-AMC). It is filed as biochemical. To be noted: IC50 class, Suc-LLVY-AMC substrate. Here is the method:
The enzymatic activity of the β5 subunit of the human constitutive proteasome (CPS) is analyzed. In another assay, which differs from the assay of the human constitutive proteasome only in using the human immunoproteasome (IPS) the enzymatic activity of the β5 subunit of the human immunoproteasome (IPS) is analyzed. […] Inhibition is indicated as IC50 [nM] (“-”=not measured).

The target in test [5] is T2, β5 subunit of the human immunoproteasome (IPS) (Homo sapiens, UniProt P28062).
T2 construct: purchased Boston Biochem E-370
Put plainly: β5 inhibition assay, human immunoproteasome (Suc-LLVY-AMC). It is filed as biochemical. Conditions: IC50 class, Suc-LLVY-AMC substrate. The essentials:
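β5 activity is read as liberated AMC fluorescence (355/460 nm) after 4 h dark reaction at RT with 22.6 μM Suc-LLVY-AMC, stopped by 1 μM bortezomib. Beforehand, 1 nM human IPS and compound sat 10 min at RT in HEPES pH 7.5 buffer containing NaCl, 0.02% SDS and DTT.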

Test [6] deals with Hs 746T (human gastric carcinoma cell line). Put plainly: 48 hr CTG viability assay, Hs 746T. The test is classed as cell-based. To be noted: Hs746T, 48 hr CTG, read-out: Hs 746T IC50. Here is the method:
as §1

Turning to `Cc1cn([C@H]2CC(=O)N3CCCC(CCOc4ccc(C)c(c4)CNC(=O)[C@H](CCc4ccccc4)NC2=O)C3)nn1` (stereo partly drawn) [Compound 740, (9S,12S)-5^4-methyl-12-(4-methyl-1H-1,2,3-triazol-1-yl)-9-phenethyl-4-oxa-7,10-diaza-1(3,1)-piperidina-5(1,3)-benzenacyclotetradecaphane-8,11,14-trione], the IC50 in test [1] was 100 to 500 nM; in test [2], 100 to 500 nM; in test [3], 100 to 500 nM; in test [4], below 100 nM; in test [5], below 100 nM; in test [6], 1000 to 5000 nM.
Take `Cc1ccc2cc1CNC(=O)[C@H](CCc1ccccc1)NC(=O)[C@@H](NC(=O)CCOCCCC1CC1)CC(=O)N1CCCC(CCO2)C1` (stereo partly drawn) [Compound 626, 3-(3-cyclopropylpropoxy)-N-((9S,12S)-5^4-methyl-8,11,14-trioxo-9-phenethyl-4-oxa-7,10-diaza-1(3,1)-piperidina-5(1,3)-benzenacyclotetradecaphane-12-yl)propanamide]: the IC50 in test [1], in test [2], in test [3], in test [4], in test [5] and in test [6] was below 100 nM throughout.
For `Cc1ccc2cc1CNC(=O)[C@H](CCc1ccccc1)NC(=O)[C@@H](N1CCCCC1=O)CC(=O)N1CCCC(CCO2)C1` (stereo partly drawn) [Compound 734, (9S,12S)-5^4-methyl-12-(2-oxopiperidin-1-yl)-9-phenethyl-4-oxa-7,10-diaza-1(3,1)-piperidina-5(1,3)-benzenacyclotetradecaphane-8,11,14-trione], the IC50 in test [1] is 1000 to 5000 nM; in test [2] it was 1000 to 5000 nM; in test [3], 1000 to 5000 nM; in test [4] it was 1000 to 5000 nM; in test [5] it was 100 to 500 nM; in test [6], above 5000 nM.
Turning to `Cc1ccc2cc1CNC(=O)[C@H](CCc1ccccc1)NC(=O)[C@@H](NC(=O)CCN1CCC3(COC3)C1)CC(=O)N1CCCC(CCO2)C1` (stereo partly drawn) [Compound 648, N-((9S,12S)-5^4-methyl-8,11,14-trioxo-9-phenethyl-4-oxa-7,10-diaza-1(3,1)-piperidina-5(1,3)-benzenacyclotetradecaphane-12-yl)-3-(2-oxa-6-azaspiro[3.4]octan-6-yl)propanamide], the IC50 in test [1], in test [2], in test [3], in test [4], in test [5] and in test [6] was below 100 nM each time.
With `Cc1ccc2cc1CNC(=O)[C@H](CCc1ccccc1)NC(=O)[C@@H](NC(=O)CCNCc1ccc(N3CCN(Cc4ccccc4)CC3)cc1)CC(=O)N1CCCC(CCO2)C1` (stereo partly drawn) [Compound 699, 3-((4-(4-benzylpiperazin-1-yl)benzyl)amino)-N-((9S,12S)-5^4-methyl-8,11,14-trioxo-9-phenethyl-4-oxa-7,10-diaza-1(3,1)-piperidina-5(1,3)-benzenacyclotetradecaphane-12-yl)propanamide], the IC50 in test [1], in test [2], in test [3], in test [4], in test [5] and in test [6] was below 100 nM each time.
`Cc1ccc2cc1CNC(=O)[C@H](CCc1ccccc1)NC(=O)[C@@H](NC(=O)C(C)(C)c1ccc3ncccc3c1)CC(=O)N1CCCC(CCO2)C1` (stereo partly drawn) [Compound 609, 2-methyl-N-((9S,12S)-5^4-methyl-8,11,14-trioxo-9-phenethyl-4-oxa-7,10-diaza-1(3,1)-piperidina-5(1,3)-benzenacyclotetradecaphane-12-yl)-2-(quinolin-6-yl)propanamide]: the IC50 in test [1], in test [2], in test [3], in test [4], in test [5] and in test [6] was below 100 nM in each case.
Consider `Cc1ccc2cc1CNC(=O)[C@H](CCc1ccccc1)NC(=O)[C@@H](NC(=O)CCOc1ccccc1)CC(=O)N1CCCC(CCO2)C1` (stereo partly drawn) [Compound 591, N-((9S,12S)-5^4-methyl-8,11,14-trioxo-9-phenethyl-4-oxa-7,10-diaza-1(3,1)-piperidina-5(1,3)-benzenacyclotetradecaphane-12-yl)-3-phenoxypropanamide], for which the IC50 in test [1], in test [2], in test [3], in test [4], in test [5] and in test [6] was below 100 nM in each case.
As for `Cc1ccc2cc1CNC(=O)[C@H](CCc1ccccc1)NC(=O)[C@@H](NC(=O)CCOCCCc1ccccc1)CC(=O)N1CCCC(CCO2)C1` (stereo partly drawn) [Compound 612, N-((9S,12S)-5^4-methyl-8,11,14-trioxo-9-phenethyl-4-oxa-7,10-diaza-1(3,1)-piperidina-5(1,3)-benzenacyclotetradecaphane-12-yl)-3-(3-phenylpropoxy)propanamide], the IC50 in test [1], in test [2], in test [3], in test [4], in test [5] and in test [6] was below 100 nM in each case.
Regarding `Cc1ccc2cc1CNC(=O)[C@H](CCc1ccccc1)NC(=O)[C@@H](NC(=O)CCOC1CC3(COC3)C1)CC(=O)N1CCCC(CCO2)C1` (stereo partly drawn) [Compound 590, 3-((2-oxaspiro[3.3]heptan-6-yl)oxy)-N-((9S,12S)-5^4-methyl-8,11,14-trioxo-9-phenethyl-4-oxa-7,10-diaza-1(3,1)-piperidina-5(1,3)-benzenacyclotetradecaphane-12-yl)propanamide], the IC50 in test [1], in test [2], in test [3], in test [4], in test [5] and in test [6] was below 100 nM throughout.
Turning to `Cc1ccc2cc1CNC(=O)[C@H](CCc1ccccc1)NC(=O)[C@@H](NC(=O)CCOCC1CC1)CC(=O)N1CCCC(CCO2)C1` (stereo partly drawn) [Compound 594, 3-(cyclopropylmethoxy)-N-((9S,12S)-5^4-methyl-8,11,14-trioxo-9-phenethyl-4-oxa-7,10-diaza-1(3,1)-piperidina-5(1,3)-benzenacyclotetradecaphane-12-yl)propanamide], the IC50 in test [1], in test [2], in test [3], in test [4], in test [5] and in test [6] was below 100 nM each time.
Take `Cc1ccc2cc1CNC(=O)[C@H](CCc1ccccc1)NC(=O)[C@@H](N1CCCC1=O)CC(=O)N1CCCC(CCO2)C1` (stereo partly drawn) [Compound 728, (9S,12S)-5^4-methyl-12-(2-oxopyrrolidin-1-yl)-9-phenethyl-4-oxa-7,10-diaza-1(3,1)-piperidina-5(1,3)-benzenacyclotetradecaphane-8,11,14-trione]: the IC50 is 100 to 500 nM in test [1]; 500 to 1000 nM in test [2]; 100 to 500 nM in test [3]; 100 to 500 nM in test [4]; 100 to 500 nM in test [5]; 1000 to 5000 nM in test [6].
On to `COc1cccc(COCCC(=O)N[C@H]2CC(=O)N3CCCC(CCOc4ccc(C)c(c4)CNC(=O)[C@H](CCc4ccccc4)NC2=O)C3)c1` (stereo partly drawn) [Compound 585, 3-((3-methoxybenzyl)oxy)-N-((9S,12S)-5^4-methyl-8,11,14-trioxo-9-phenethyl-4-oxa-7,10-diaza-1(3,1)-piperidina-5(1,3)-benzenacyclotetradecaphane-12-yl)propanamide], for which the IC50 in test [1], in test [2], in test [3], in test [4], in test [5] and in test [6] was below 100 nM in each case.
For `Cc1ccc2cc1CNC(=O)[C@H](CCc1ccccc1)NC(=O)[C@@H](NC(=O)CCOCCCC1CCCC1)CC(=O)N1CCCC(CCO2)C1` (stereo partly drawn) [Compound 692, 3-(3-cyclopentylpropoxy)-N-((9S,12S)-5^4-methyl-8,11,14-trioxo-9-phenethyl-4-oxa-7,10-diaza-1(3,1)-piperidina-5(1,3)-benzenacyclotetradecaphane-12-yl)propanamide], the IC50 in test [1], in test [3], in test [4], in test [5] and in test [6] was below 100 nM each time.
